Results published in patent US20240343699A1, “DERIVATIVES OF SUBSTITUTED MORPHOLINES AND USES THEREOF” (Supernus Pharmaceuticals, Inc., priority 2023, published 2024).
Values joined by “and” are separate entries in the source; they are usually repeats but may differ in a detail not shown here. Equal values may be shown once. Read-outs that look alike come from different tables or passages of the source.

Columns and labels:
[1] = Metabolic stability in human liver S9; format: in vitro ADME; details: for half-life at 1 μM / microsomal CLint at 1 μM: pH 7.2
Experimental: Incubation Buffer (PBK): 50 mM potassium phosphate buffer was prepared from 1 M potassium phosphate buffer, pH 7.2. […] The dilution of […] was prepared by 90% methanol/10% DMSO, then 10 μM working solutions were prepared by diluting the 0.1 mM intermediates with 50 mM PBK. […] Prior to use, the stock solutions were brought to room temperature and thoroughly mixed. […] Cofactors Solutions: the mixture of cofactors solution was made at 10 mM of NADPH and 10 mM of UDPGA in PBK buffer.
The incubation was carried out in 96-well plates. The liver S9 working solutions were added to 96-well plates (80 μL/well) in duplicate. […] Reaction was initiated by adding cofactor mixture 10 μL/well. The plates were incubated at 37° C. in a water bath with shaking. […] The final organic solvent content in the incubation was ≤1%.
At specified time points, i.e., 5, 10, 20, 30 and 60 minutes, NCF60 (without adding NADPH (Nicotinamide-adenine dinucleotide phosphate, reduced form) and UDPGA (Uridine 5′-diphosphoglucuronic acid trisodium salt) replaced with PBK buffer reaction was stopped by adding three volumes of stop solution. The time zero (To) samples were prepared by adding three volumes of stop solution to liver S9 samples, followed by addition of test article or control, and cofactor mixture solution 10 μL/well.
Subsequently, 100 μL of supernatant.
Positive controls: 7-ethoxycoumarin and 7-hydroxycoumarin.

behavioral signature = assay: SmartCube phenotypic screening (class/subclass and DRFA similarity analysis); format: in vivo, male C57/B16 mice; details: for Subclass signature: COMPOUND A 30-120 mg/kg, COMPOUND B 90 and 120 mg/kg PO; for proximity to donepezil / proximity to thioperamide: DRFA dose by dose, maximum (COMPOUND A: 90 and 120 mg/kg)
Experimental: A study was conducted to evaluate the CNS-like efficacy of novel test compounds using the SmartCube® System.
Animals. Male C57/B16 mice from Taconic Laboratories (Germantown, NY) were used. Upon receipt, mice were group-housed in OPTIMice® ventilated cages with 4 mice per cage. Mice were acclimated to the colony room for at least one week prior to test, and subsequently tested at approximately 8-9 weeks of age. All animals were examined, handled, and weighed prior to initiation of the study to assure adequate health and suitability and to minimize nonspecific stress associated with manipulation. During the course of the study, 12/12 light/dark cycles were maintained. The room temperature was 20-23° C. with a relative humidity maintained between 30-70%. Chow and water were provided ad libitum for the duration of the study.
Test compounds. All compounds were administered orally at a dose volume of 10 mL/kg, 20 minutes prior to testing. Formulations were prepared fresh on day of testing and dosing was completed within one hour of formulation. Compounds were prepared according to the table below. Twelve mice were used in each treatment group:
SmartCube®. The SmartCube® system is designed to and can successfully measure numerous spontaneous behaviors and response to challenges in the same testing environment. The hardware includes force sensors and a number of aversive stimuli to elicit behavior. Three high-resolution video cameras provide constant 3D view of the mouse in the SmartCube® apparatus (SC) throughout the entire testing period. During the 45-minute test session the mice are exposed to a sequence of challenges. The cubes are cleaned between each run.
Digital videos of the subjects were processed through computer segmentation algorithms to fit geometrical models to each mouse frame image. The resulting fitted parameters were then analyzed using behavioral classifier algorithms to extract behavioral states, such as rearing, locomotion, and immobility. The data obtained in this way was used to define a drug signature for PGI's known reference compounds and establish a therapeutic class signature against which a test sample can be compared.
The data mining effort utilizes several analytical methods including Bayesian probabilistic density models and Decision trees. The algorithms consider ˜2,600 measures including frequency and duration of behavioral states such as grooming, rearing, etc., and many other features obtained during the test session.
Two major types of analyses are routinely conducted: Class and subclass.
Each reference drug was tested at multiple doses appropriate for that drug in mice.
Multiple analyses of the data were performed to quantitatively produce independent predictions of drug class, and drug subclass. The behavioral signatures of the test drugs were evaluated using these classifiers to predict potential therapeutic utility.
The results for the class and subclass analyses are presented as standardized bar charts with percentages that sum to 100 for each dose.
Similarity Analysis Using “Clouds Framework”. The outcome from SmartCube® is a large set of features (behavioral parameters) that can be used for various analyses. […] Therefore, we formed statistically independent combinations of the original features (further referred to as de-correlated features). Each de-correlated feature extracted information from the whole cluster of the original features, so the new feature space would have lower dimensionality. Next, we applied a proprietary feature ranking algorithm to score each feature for its discrimination power (ability to separate the two groups, e.g. vehicle from treatment). Ranking is an important part of our analyses because it weighs each feature change by its relevance. We applied a feature ranking algorithm, derived from support vector in the support vector machine learning method, to rank each feature.

Enzyme and uptake assays = format: biochemical; details: human recombinant; [3H]NE incorporation into cells; read-out: IC50, Norepinephrine transporter uptake (h)
Experimental: A study was conducted to test 5 compounds in cellular and nuclear receptor functional and enzyme and uptake assays.
The results are expressed as a percent of control specific activity
and as a percent inhibition of control specific activity
The IC50 values (concentration causing a half-maximal inhibition of control specific activity), EC50 values (concentration producing a half-maximal increase in control basal activity), and Hill coefficients (nH) were determined by non-linear regression analysis of the inhibition/concentration-response curves generated with mean replicate values using Hill equation curve fitting
where Y=specific activity, A=left asymptote of the curve, D=right asymptote of the curve, C=compound concentration, C50=IC50 or EC50, and nH=slope factor. This analysis was performed using software developed at Cerep (Hill software) and validated by comparison with data generated by the commercial software SigmaPlot® 4.0 for Windows® (© 1997 by SPSS Inc.).
In Vitro Pharmacology. Results showing an inhibition (or stimulation for assays run in basal conditions) higher than 50% were considered to represent significant effects of the test compounds. Results showing an inhibition (or stimulation) between 25% and 50% are indicative of weak to moderate effects. Results showing an inhibition (or stimulation) lower than 25% were not considered significant and mostly attributable to variability of the signal around the control level. […]

[2] = 80 mg/kg PO; for Clinical observation (tolerability): beagle dogs; for plasma concentration of the analog itself: LLOQ 3.0 ng/mL; for Tlast: COMPOUND C (parent) in plasma
[3] = Tissue binding in CD-1 mouse brain homogenate (equilibrium dialysis); details: for stability in mouse brain homogenate / Analyte Peak area/IS Peak area CR (buffer side) / Analyte Peak area/IS Peak area Co (time zero) / % Unbound Experimental / Analyte Peak area/IS Peak area CD (brain homogenate side): 2 μM; for stability in mouse brain homogenate: dialysis conditions; for Analyte Peak area/IS Peak area CR (buffer side) / Analyte Peak area/IS Peak area CD (brain homogenate side): 4 hr dialysis (COMPOUND A 1 hr); for % Unbound Experimental: 4 hr
[4] = human liver S9, 1 μM, NCF60 (no cofactors, 60 min)
[5] = human liver S9, 1 μM, read-out: CLint(LS9)
[6] = 1 μM in Human liver S9 fractions
[7] = 1 μM in Human liver S9 fractions, read-out: CLint(mic.)

Row | Compound | % Remaining ([1]; human liver S9, 1 μM, 0 min) | Analyte Peak area/IS Peak area Mean × 100 (n = 2) ([1]; human liver S9, 1 μM, 0 min) | % Remaining ([1]; human liver S9, 1 μM, 5 min) | Analyte Peak area/IS Peak area Mean × 100 (n = 2) ([1]; human liver S9, 1 μM, 5 min) | % Remaining ([1]; human liver S9, 1 μM, 10 min) | Analyte Peak area/IS Peak area Mean × 100 (n = 2) ([1]; human liver S9, 1 μM, 10 min) | % Remaining ([1]; human liver S9, 1 μM, 20 min) | Analyte Peak area/IS Peak area Mean × 100 (n = 2) ([1]; human liver S9, 1 μM, 20 min) | % Remaining ([1]; human liver S9, 1 μM, 30 min) | Analyte Peak area/IS Peak area Mean × 100 (n = 2) ([1]; human liver S9, 1 μM, 30 min) | % Remaining ([1]; human liver S9, 1 μM, 60 min) | Analyte Peak area/IS Peak area Mean × 100 (n = 2) ([1]; human liver S9, 1 μM, 60 min) | % Remaining [1, 4] | Analyte Peak area/IS Peak area Mean × 100 (n = 2) [1, 4] | half-life at 1 μM ([1]; human liver S9, 1 μM) | microsomal CLint at 1 μM [1, 5] | IC50 (Enzyme and uptake assays) | Clinical observation (tolerability) [2] | plasma concentration of the analog itself [2] | stability in mouse brain homogenate [3] | also measured
1 | CCOc1ccccc1OC[C@@H]1CN(C(=O)OC(C)OC(=O)[C@@H](N)C(C)C)CCO1 (some centres unmarked) [COMPOUND A] | 100% | 11.7 | 1.4% | 0.164 | 1.2% | 0.143 | 0.3% | 0.039 | 0.2% | 0.021 | 0.01% and 0.0% | 0.001 | 0.1% | 0.008 | 5.76 min | 241 µL/min/mg | 390 nM | well tolerated | mostly below the LLOQ | unstable | behavioral activity (class/subclass analysis) (behavioral signature; 30-120 mg/kg PO): high behavioral activity; Subclass signature (behavioral signature): predominantly cognitive enhancer-like; proximity to donepezil (behavioral signature): > 65%; proximity to thioperamide (behavioral signature): > 75%; Analyte Peak area/IS Peak area CR (buffer side) ([3]; mouse brain homogenate): 0.0003 and 0.0002; Analyte Peak area/IS Peak area Co (time zero) ([3]; mouse brain homogenate): 0.010 and 0.012; % remaining after 1 hr ([3]; mouse brain homogenate, 1 hr (data not shown)): ^dCan't be determined due to instability of test article, which has 1.3% remaining after 1 hr (data not shown).
2 | CCOc1ccccc1OC[C@@H]1CN(C(=O)OC(OC(=O)[C@@H](N)C(C)C)C(C)C)CCO1 (some centres unmarked) [COMPOUND B] | 100% | 8.22 | 14% | 1.12 | 12% | 0.973 | 4.2% | 0.342 | 1.6% | 0.131 | 0.24% and 0.2% | 0.020 | 1.2% | 0.099 | 7.74 min | 179 µL/min/mg | 1900 nM | well tolerated | mostly below the LLOQ | unstable | behavioral activity (class/subclass analysis) (behavioral signature; 90 and 120 mg/kg PO): high behavioral activity; Subclass signature (behavioral signature): predominantly cognitive enhancer-like; % Unbound Experimental ([3]; mouse brain homogenate): 15.5%; Analyte Peak area/IS Peak area CD (brain homogenate side) ([3]; mouse brain homogenate): 0.009 and 0.010; Analyte Peak area/IS Peak area CR (buffer side) ([3]; mouse brain homogenate): 0.001 and 0.002; Analyte Peak area/IS Peak area Co (time zero) ([3]; mouse brain homogenate): 0.057 and 0.059 and 0.064
3 | CCOc1ccccc1OC[C@@H]1CN(C(=O)OC(OC(=O)[C@H](N)C(C)C)C(C)C)CCO1 (some centres unmarked) [COMPOUND C] | 100% | 10.6 | 7.7% | 0.808 | 4.2% | 0.446 | 2.8% | 0.297 | 1.5% | 0.160 | 0.19% and 0.2% | 0.020 | 0.6% | 0.061 | 8.12 min | 171 µL/min/mg | 1800 nM | well tolerated | well above LLOQ | unstable | behavioral activity (class/subclass analysis) (behavioral signature; 60-150 mg/kg PO): high behavioral activity; proximity to donepezil (behavioral signature): around 100%; proximity to thioperamide (behavioral signature): around 100%; proximity to amphetamine (behavioral signature; DRFA, active doses): > 75%; proximity to atomoxetine (behavioral signature; DRFA, active doses): > 75%; class signature (behavioral signature; highest dose tested (150 mg/kg PO)): predominant antipsychotic-like signature; Tlast ([2]; female beagle dogs): 16.0 h; Tlast ([2]; male beagle dogs): 16.0 h; % Unbound Experimental ([3]; mouse brain homogenate): 20.9%; Analyte Peak area/IS Peak area CD (brain homogenate side) ([3]; mouse brain homogenate): 0.002 and 0.003; Analyte Peak area/IS Peak area CR (buffer side) ([3]; mouse brain homogenate): 0.001; Analyte Peak area/IS Peak area Co (time zero) ([3]; mouse brain homogenate): 0.036 and 0.037 and 0.041
4 | CCOc1ccccc1OCC1CN(C(=O)OC(C)OC(=O)[C@H](N)C(C)C)CCO1 (some centres unmarked) [COMPOUND D] | – | – | – | – | – | – | – | – | – | – | – | – | – | – | – | – | 870 nM | – | – | – | % Remaining at 60 min [1, 6]: 0.00%; half-life at 1 μM [1, 6]: 1.86 min; microsomal CLint at 1 μM [1, 7]: 746 µL/min/mg; behavioral activity (class/subclass analysis) (behavioral signature; 40 and 80 mg/kg PO): dose dependent increase in activity
5 | CCOc1ccccc1OCC1CN(C(=O)OC(OC(=O)[C@@H](N)C(C)C)C(C)C)CCO1 (some centres unmarked) [COMPOUND E] | – | – | – | – | – | – | – | – | – | – | – | – | – | – | – | – | 2600 nM | – | – | – | % Remaining at 60 min [1, 6]: 0.76%; half-life at 1 μM [1, 6]: 8.9 min; microsomal CLint at 1 μM [1, 7]: 155 µL/min/mg; behavioral activity (class/subclass analysis) (behavioral signature; 40 and 80 mg/kg PO): moderate activity
